Data as given in ChEMBL document CHEMBL1201862, “PubChem BioAssay data set” (2004).
Active and inactive are the calls of the source.

Tests used:
[1] = biological target: T1, Sentrin-specific protease 8 (Homo sapiens, UniProt Q96LD8); format: functional;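 also: luminescence read-out of SENP8 inhibition, dose-response confirmation following an ultra-high-throughput screen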
T1 sequence (Q96LD8 whole entry): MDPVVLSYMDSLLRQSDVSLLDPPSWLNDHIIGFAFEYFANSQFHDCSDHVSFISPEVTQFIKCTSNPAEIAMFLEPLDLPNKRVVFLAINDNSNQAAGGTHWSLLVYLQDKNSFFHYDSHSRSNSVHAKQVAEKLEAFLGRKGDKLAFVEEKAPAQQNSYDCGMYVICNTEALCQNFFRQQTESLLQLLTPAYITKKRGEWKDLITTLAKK

[2] = biological target: T2, Sentrin-specific protease 7 (Homo sapiens, UniProt Q9BQF6); format: functional;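 also: Luminescence-based dose-response confirmation of ultra-high-throughput screening hits, measuring inhibition of SENP7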
T2 sequence (Q9BQF6 whole entry): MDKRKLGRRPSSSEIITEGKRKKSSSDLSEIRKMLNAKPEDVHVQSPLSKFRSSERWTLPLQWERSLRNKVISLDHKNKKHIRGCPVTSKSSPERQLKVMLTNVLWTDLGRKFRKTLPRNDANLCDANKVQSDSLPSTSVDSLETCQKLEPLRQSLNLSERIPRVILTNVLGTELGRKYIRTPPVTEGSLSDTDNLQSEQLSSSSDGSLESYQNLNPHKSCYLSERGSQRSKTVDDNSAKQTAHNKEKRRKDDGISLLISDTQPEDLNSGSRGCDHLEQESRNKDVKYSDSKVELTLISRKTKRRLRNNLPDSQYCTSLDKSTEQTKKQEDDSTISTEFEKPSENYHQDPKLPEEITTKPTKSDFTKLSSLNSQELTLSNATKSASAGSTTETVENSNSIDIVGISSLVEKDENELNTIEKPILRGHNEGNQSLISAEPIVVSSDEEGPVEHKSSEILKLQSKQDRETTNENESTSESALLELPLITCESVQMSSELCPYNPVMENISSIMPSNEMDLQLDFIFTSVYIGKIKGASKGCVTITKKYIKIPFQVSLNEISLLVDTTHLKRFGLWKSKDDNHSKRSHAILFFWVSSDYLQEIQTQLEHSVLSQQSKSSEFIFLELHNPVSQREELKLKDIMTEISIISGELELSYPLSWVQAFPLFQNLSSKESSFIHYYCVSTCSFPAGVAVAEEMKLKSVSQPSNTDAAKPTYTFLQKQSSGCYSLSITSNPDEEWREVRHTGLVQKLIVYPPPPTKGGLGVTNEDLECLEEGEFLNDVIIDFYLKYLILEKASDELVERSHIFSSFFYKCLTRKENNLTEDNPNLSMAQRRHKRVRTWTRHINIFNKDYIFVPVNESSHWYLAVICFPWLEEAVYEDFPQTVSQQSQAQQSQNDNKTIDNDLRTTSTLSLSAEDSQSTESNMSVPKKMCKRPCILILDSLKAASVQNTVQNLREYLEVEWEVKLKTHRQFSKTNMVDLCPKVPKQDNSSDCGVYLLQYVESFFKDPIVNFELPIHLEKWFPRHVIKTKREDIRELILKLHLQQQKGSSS

[3] = Luminescence Cell-Based Dose Response to Identify Activators of 5'UTR Stem-Loop Driven Prion Protein mRNA Translation in H4-C Neuroglioblastoma Cells. [Related pubchem assays: 1829 (Project Summary), 1814 (Primary HTS)]; format: functional
[4] = Luminescence Cell-Based Dose Response HTS to Identify Activators of Luciferase Translation or Activity in H4 […] Cells. [Related pubchem assays: 1829 (Project Summary), 1814 (Primary HTS)]; format: functional
[5] = biological target: T3, Sentrin-specific protease 6 (Homo sapiens, UniProt Q9GZR1); format: functional;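 also: Luminescence-based dose-response confirmatory assay of SENP6 inhibition, following up an ultra-high-throughput screen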
T3 sequence (Q9GZR1 whole entry): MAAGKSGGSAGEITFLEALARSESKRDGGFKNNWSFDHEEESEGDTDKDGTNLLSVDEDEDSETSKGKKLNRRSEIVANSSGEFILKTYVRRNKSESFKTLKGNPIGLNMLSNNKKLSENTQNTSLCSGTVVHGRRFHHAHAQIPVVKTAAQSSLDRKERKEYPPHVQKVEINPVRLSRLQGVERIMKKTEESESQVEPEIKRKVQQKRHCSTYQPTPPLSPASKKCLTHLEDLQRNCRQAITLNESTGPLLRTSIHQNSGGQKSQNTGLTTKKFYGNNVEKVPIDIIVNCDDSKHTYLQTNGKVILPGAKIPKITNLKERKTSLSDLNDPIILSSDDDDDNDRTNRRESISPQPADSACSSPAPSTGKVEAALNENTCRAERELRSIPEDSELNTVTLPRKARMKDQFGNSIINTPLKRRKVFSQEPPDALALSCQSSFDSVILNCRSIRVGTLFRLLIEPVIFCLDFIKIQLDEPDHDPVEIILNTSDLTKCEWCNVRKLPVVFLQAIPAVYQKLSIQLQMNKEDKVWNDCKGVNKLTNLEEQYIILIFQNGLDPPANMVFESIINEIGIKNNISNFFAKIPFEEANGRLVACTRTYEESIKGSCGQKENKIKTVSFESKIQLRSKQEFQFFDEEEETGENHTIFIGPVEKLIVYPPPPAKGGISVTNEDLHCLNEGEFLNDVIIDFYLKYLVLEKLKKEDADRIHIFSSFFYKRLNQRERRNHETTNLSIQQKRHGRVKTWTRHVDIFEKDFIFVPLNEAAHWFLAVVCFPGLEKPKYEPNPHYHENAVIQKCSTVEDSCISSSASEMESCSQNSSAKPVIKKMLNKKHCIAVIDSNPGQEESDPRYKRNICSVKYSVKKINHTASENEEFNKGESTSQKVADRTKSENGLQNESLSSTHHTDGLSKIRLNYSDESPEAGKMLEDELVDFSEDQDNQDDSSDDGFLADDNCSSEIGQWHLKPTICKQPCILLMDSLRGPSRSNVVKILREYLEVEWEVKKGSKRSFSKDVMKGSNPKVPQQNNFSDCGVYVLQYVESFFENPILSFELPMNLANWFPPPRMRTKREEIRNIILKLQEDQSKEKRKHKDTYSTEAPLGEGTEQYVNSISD

[6] = Luminescence Cell-Based Dose Response to Identify Activators of Luciferase Translation or Activity in H4-C Neuroglioblastoma Cells. [Related pubchem assays: 1829 (Project Summary), 1814 (Primary HTS)]; format: functional
[7] = Luminescence Cell-Based Dose Confirmation to Identify Activators of 5'UTR Stem-Loop Driven Alpha-Synuclein mRNA Translation in H4 Neuroglioblastoma Cells. [Related pubchem assays: 1829 (Project Summary), 1814 (Primary HTS)]; format: functional
Caspase-3 = biological target: T4, Caspase-3 (Homo sapiens, UniProt P42574); format: functional;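 also: Dose-response selectivity test against caspase-3 for candidate inhibitors of sentrin-specific proteases (SENPs)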
T4 sequence (P42574 whole entry): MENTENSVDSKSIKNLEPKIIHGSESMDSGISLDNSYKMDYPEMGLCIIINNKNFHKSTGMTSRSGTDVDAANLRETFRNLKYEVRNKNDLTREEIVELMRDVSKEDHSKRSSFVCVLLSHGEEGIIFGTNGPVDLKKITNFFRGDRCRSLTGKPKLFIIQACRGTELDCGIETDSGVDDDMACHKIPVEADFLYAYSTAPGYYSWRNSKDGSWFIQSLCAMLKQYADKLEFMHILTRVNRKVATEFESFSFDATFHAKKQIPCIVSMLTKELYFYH

Prothrombin = Prothrombin (Homo sapiens, UniProt P00734); test: Thrombin 1536 HTS Dose Response Confirmation. [Related pubchem assays: 1046 (Thrombin 1536 HTS; hits were confirmed in this assay)]; format: functional
Fatty acid synthase [8] = biological target: T5, Fatty acid synthase (Homo sapiens, UniProt P49327); test: inhibition of human FAS-TE enzyme activity – biochemical, kinetic fluorescence intensity, dose response (AID 624326); format: functional;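 also: rate of fluorescence rise from hydrolysis of a fluorogenic O-methyl fluorescein ester substrate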
[9] = viability of uninfected HEp-2 cells – cell-based, HTS, cytotoxicity control for RSV inhibitor project, dose response (AID 2410); format: functional; details: human respiratory syncytial virus
Fatty acid synthase [10] = biological target: T5, Fatty acid synthase; test: inhibition of human FAS-TE enzyme activity – biochemical, endpoint fluorescence intensity, uHTS hits, dose response (AID 624327); format: functional;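 also: fluorescence from hydrolysis of an O-methyl fluorescein acyl ester substrate by the enzyme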
H4 = test: Luminescence Cell-Based Dose Response HTS to Identify Activators of 5'UTR Stem-Loop Driven Prion Protein mRNA Translation in H4 Neuroglioblastoma Cells. [Related pubchem assays: 1829 (Project Summary), 1814 (Primary HTS)]; format: functional; details: Homo sapiens
[11] = M. tuberculosis H37Rv growth inhibitors, H37Rv strain (AID 1626); format: functional
[12] = toxicity to human hepatoma HepG2 cells – cell-based, cherry-picked samples, cytotoxicity control, dose response (AID 1159577); format: functional
[13] = P. falciparum Dd2 growth inhibitors, dose response, SYBR Green, cherry-picked samples (AID 1159567); format: functional, cell-based
[14] = growth inhibition of yeast DHODH-expressing 3D7 parasites – SYBR Green, dry powder samples, dose response (AID 1159570); format: functional, cell-based;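 also: parasite growth measured after 72 hours of compound exposure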
[15] = Dd2 malaria parasite growth inhibition potency – SYBR Green, dry powder samples, dose response (AID 1159566); format: functional, cell-based;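 also: potency for growth inhibition with lower SYBR green DNA signal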
[16] = growth inhibition of PfATP4-mutant resistant parasites – NITD609-resistant line, SYBR Green, dry powder, dose response (AID 1159571); format: functional, cell-based;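 also: parasites synchronized at ring stage by sorbitol before testing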

T5 sequence (P49327 whole entry): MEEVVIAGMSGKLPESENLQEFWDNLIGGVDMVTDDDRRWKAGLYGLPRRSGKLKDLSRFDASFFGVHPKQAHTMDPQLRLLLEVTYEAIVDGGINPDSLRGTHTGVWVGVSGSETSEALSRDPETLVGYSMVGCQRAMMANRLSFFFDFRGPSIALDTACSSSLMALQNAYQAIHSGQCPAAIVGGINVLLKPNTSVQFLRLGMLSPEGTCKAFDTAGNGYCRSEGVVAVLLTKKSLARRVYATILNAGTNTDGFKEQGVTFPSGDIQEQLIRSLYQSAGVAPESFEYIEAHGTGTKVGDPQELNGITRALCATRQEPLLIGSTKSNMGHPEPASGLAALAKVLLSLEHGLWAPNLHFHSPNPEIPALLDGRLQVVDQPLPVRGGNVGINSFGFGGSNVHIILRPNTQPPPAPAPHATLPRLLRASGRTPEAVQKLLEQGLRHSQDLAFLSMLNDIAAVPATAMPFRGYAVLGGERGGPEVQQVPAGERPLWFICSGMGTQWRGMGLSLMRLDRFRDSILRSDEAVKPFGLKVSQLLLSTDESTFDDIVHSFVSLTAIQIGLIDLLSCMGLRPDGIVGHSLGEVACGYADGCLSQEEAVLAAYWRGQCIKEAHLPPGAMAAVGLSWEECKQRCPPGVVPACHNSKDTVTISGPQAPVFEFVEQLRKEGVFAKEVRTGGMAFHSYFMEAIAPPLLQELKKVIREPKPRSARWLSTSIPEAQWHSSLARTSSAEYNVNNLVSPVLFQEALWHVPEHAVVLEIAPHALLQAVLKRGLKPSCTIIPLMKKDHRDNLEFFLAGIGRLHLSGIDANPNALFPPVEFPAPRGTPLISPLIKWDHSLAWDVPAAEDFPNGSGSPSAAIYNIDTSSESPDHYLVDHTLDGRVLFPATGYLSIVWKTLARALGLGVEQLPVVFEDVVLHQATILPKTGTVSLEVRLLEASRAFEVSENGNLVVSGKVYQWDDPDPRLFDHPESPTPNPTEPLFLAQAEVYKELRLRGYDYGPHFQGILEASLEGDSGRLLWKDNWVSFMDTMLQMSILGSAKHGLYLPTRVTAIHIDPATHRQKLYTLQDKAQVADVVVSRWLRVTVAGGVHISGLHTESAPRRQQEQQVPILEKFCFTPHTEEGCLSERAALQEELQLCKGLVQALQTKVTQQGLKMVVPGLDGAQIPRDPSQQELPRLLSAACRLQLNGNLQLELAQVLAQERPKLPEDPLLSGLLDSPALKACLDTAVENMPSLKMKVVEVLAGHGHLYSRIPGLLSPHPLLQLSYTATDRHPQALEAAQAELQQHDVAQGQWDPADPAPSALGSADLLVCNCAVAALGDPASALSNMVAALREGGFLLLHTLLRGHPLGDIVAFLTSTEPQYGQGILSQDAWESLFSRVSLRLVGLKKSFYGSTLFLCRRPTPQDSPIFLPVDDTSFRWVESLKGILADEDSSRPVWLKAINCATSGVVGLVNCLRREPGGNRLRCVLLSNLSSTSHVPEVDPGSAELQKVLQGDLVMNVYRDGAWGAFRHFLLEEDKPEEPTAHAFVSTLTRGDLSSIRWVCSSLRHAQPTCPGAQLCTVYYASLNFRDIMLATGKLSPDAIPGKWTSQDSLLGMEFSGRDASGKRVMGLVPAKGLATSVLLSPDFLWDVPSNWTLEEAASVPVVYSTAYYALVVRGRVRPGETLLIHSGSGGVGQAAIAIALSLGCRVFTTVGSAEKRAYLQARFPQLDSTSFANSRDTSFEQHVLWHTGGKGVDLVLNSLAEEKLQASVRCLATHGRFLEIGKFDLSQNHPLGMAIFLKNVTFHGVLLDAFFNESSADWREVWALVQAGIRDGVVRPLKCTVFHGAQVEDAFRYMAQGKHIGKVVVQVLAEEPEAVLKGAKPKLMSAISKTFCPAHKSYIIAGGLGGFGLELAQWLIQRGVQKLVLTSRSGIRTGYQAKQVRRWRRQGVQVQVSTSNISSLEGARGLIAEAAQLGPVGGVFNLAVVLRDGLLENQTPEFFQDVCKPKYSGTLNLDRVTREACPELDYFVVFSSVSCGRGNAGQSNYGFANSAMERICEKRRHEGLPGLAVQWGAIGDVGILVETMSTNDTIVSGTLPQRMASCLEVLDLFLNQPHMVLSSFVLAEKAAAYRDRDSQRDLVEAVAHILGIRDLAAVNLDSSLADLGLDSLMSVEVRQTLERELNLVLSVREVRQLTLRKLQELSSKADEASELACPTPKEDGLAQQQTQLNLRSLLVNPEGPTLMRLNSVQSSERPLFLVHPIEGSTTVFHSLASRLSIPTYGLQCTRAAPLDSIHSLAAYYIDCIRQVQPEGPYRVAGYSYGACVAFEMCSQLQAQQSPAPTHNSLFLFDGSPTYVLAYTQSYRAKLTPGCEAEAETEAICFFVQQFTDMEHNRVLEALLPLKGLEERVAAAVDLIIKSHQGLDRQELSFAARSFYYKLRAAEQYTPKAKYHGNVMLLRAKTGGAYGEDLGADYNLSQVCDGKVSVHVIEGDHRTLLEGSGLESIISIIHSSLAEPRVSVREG

Cc1ccc(OCc2nc(-c3ccccc3)no2)c(C)c1
IC50 [1]: 62 µM (active) | IC50 [2]: 7.65 µM (active) | EC50 [3]: 1.03 µM (active) | EC50 [4]: < 100 nM (active) | IC50 [5]: 11.8 µM (active) | EC50 [6]: > 12 µM (not active) | EC50 [7]: 8.27 µM (active) | IC50 (Caspase-3): 28.9 µM (active)

COC(=O)c1n[nH]c(NC(=O)c2ccccc2Br)n1
IC50 (Prothrombin): 82 nM (active)

Cc1cccn2c(=O)c(/C=C(\C#N)C(=O)NCc3ccco3)c(N3CCCCCC3)nc12
IC50 (Fatty acid synthase [8]): 9.53 µM (active) | CC50 [9]: 22 µM (active) | IC50 (Fatty acid synthase [10]): 21.9 µM (inactive) | IC50 (cells): 22.5 µM (active)

Nc1nnc(CC(=O)N/N=C/c2cccc(OCCOc3ccccc3)c2)s1
EC50 [3]: 1.25 µM (active) | EC50 [4]: < 100 nM (active) | EC50 (H4): 21.8 µM (active) | EC50 [6]: 0.88 µM (active) | EC50 [7]: 0.38 µM (active)

CCOc1nn(-c2ccccc2)c(O)c1/C=N/c1ccc(OC)cc1
IC50 [11]: > 100 µM (active)

COc1cccc(S(=O)(=O)Nc2ccc3c(c2)[C@@H]2C[C@H](CC(=O)NCc4cccc(F)c4)O[C@@H](CO)[C@@H]2O3)c1
AC50 [12]: 22.7 µM (active) | AC50 [13]: 6.43 µM (active)

C[C@@H]1CN([C@H](C)CO)C(=O)c2c(c3ccccc3n2C)-c2ccccc2CO[C@H]1CN(C)Cc1ccc(Cl)c(Cl)c1
AC50 [12]: 30 µM (active) | AC50 [13]: 3.7 µM (active)

CC(C)CNC[C@@H]1[C@@H](c2ccccc2)[C@@H](CO)N1Cc1ccc(F)cc1
AC50 [14]: 3.03 µM (active) | AC50 [15]: 409 nM (active) | AC50 [13]: 1.33 µM (active) | AC50 [16]: 727 nM (active)

COc1ccc2c3c(n(C)c2c1)[C@H](CO)N(CC1CCCCC1)CC31CCN(Cc2nccs2)CC1
AC50 [14]: 1.26 µM (active) | AC50 [15]: 1620 nM (active) | AC50 [13]: 1.94 µM (active) | AC50 [16]: 1520 nM (active)

O=C(C1CCCCC1)N1CC(=O)N2[C@H](C1)[C@@H](c1ccc(C#Cc3cccc(F)c3)cc1)[C@@H]2CO
AC50 [12]: > 39 µM (inactive) | AC50 [13]: 4.26 µM (active)

CCOC(=O)c1ccc(NC(=O)N2CCN(Cc3ccccc3)CC2)cc1
IC50 [11]: > 100 µM (active)
